# Assay: Oral absorption of encapsulated DMSO-bound heparin-DOCA in monkeys (FIG. 5)
# Assay type: in vivo
# Details: in buffer, 100 mg/kg (control)
# Description: DMSO-bound heparin-DOCA prepared according to the method of Example 1 was encapsulated and then administered orally to monkeys at either 5 mg/kg or 10 mg/kg dosages. As a control, heparin in buffer was orally administered at 100 mg/kg.
substance,measurement,value
heparin,absorption after oral administration,negligible

# From patent US20070021325A1, “Drug formulation containing a solubilizer for enhancing solubility, absorption, and permeability” (Mediplex Corporation, priority 2005, published 2007)
